Assay results as given in paper PMC12250302, “Synthesis, Antimicrobial Activities, and Model of Action of Novel Tetralone Derivatives Containing Aminoguanidinium Moiety” (International Journal of Molecular Sciences, 2025).
In brackets after ≈: the same amount, converted by molar mass.

Experiments:
Test in all cases: MIC and MBC testing, broth microdilution
E. faecium ATCC 35667 = type: cell-based, Enterococcus faecium; settings: Enterococcus faecium, ATCC35667, E. faecium ATCC 35667; for MIC: 18 h, read-out: MIC; for MBC: read-out: MBC
Source text: (§1) The minimum inhibitory concentrations (MICs) and minimum bactericidal concentrations (MBCs) of the synthesized compounds effective against ESKAPE strains, S. aureus clinical isolates, and MRSA were investigated by the broth dilution method. Levofloxacin is a broad-spectrum antibacterial agent that is widely used in the treatment of ESKAPE infections. Therefore, levofloxacin was selected as the positive control for the preliminary activity screening. DMSO (0.1%) was selected as the negative control.
(§2) The minimum inhibitory concentration (MIC) of all synthesized compounds was tested by the broth microdilution method. In brief, compounds dissolved in DMSO were diluted twice continuously in a 96-well plate with MH broth. The ESKAPE pathogens (E. coli ATCC 25922, S. aureus ATCC 29213, K. pneumoniae ATCC 700603, A. baumannii ATCC 19606, P. aeruginosa ATCC 27853, and E. faecium ATCC 35667), clinical S. aureus isolates (LMY45, LMY46, LMY47, and LMY48) and methicillin-resistant Staphylococcus aureus (MRSA-1 and MRSA-2) were cultured in MH broth to logarithmic growth phase and then diluted to 1 × 10^6 CFU/mL in MH broth. Subsequently, the diluted bacterial solution was mixed with the diluted compound solution in a 96-well plate and incubated at 37 °C for a duration of 18 h. The MIC of the compounds was recorded as the lowest concentration at which no visible growth was observed. […] Each concentration was replicated thrice.

S. aureus ATCC 29213 = type: cell-based, Staphylococcus aureus; settings: Staphylococcus aureus, ATCC29213, S. aureus ATCC 29213; for MIC: 18 h, read-out: MIC; for MBC: read-out: MBC
Source text: as §1, §2

[1] = test system: K. pneumoniae ATCC 700603; type: cell-based, Klebsiella pneumoniae; settings: Klebsiella pneumoniae; for MIC: ATCC700603, 18 h, read-out: MIC; for MBC: ATCC700603, read-out: MBC
Source text: as §1, §2

A. baumannii ATCC 19606 = type: cell-based, Acinetobacter baumannii; settings: Acinetobacter baumannii; for MIC: ATCC19606, 18 h, read-out: MIC; for MBC: ATCC19606, read-out: MBC
Source text: as §1, §2

P. aeruginosa ATCC 27853 = type: cell-based, Pseudomonas aeruginosa; settings: Pseudomonas aeruginosa; for MIC: ATCC27853, 18 h, read-out: MIC; for MBC: ATCC27853, read-out: MBC
Source text: as §1, §2

E. coli ATCC 25922 = type: cell-based, Escherichia coli; settings: Escherichia coli; for MIC: ATCC25922, 18 h, read-out: MIC; for MBC: ATCC25922, read-out: MBC
Source text: as §1, §2

MRSA-1 = type: cell-based, Staphylococcus aureus; settings: Staphylococcus aureus, MRSA-1; for MIC: 18 h, read-out: MIC; for MBC: read-out: MBC
Description: (§3) Furthermore, the MBC values of the compounds were detected.
as §2, with “h.” for “h. The MIC of the compounds was recorded as the lowest concentration at which no visible growth was observed.”

MRSA-2 = type: cell-based, Staphylococcus aureus; settings: Staphylococcus aureus, MRSA-2; for MIC: 18 h, read-out: MIC; for MBC: read-out: MBC
Description: as §3
as §2, with “h.” for “h. The MIC of the compounds was recorded as the lowest concentration at which no visible growth was observed.”

[2] = test system: clinical S. aureus isolate LMY45; type: cell-based, Staphylococcus aureus; settings: Staphylococcus aureus, LMY45; for MIC: 18 h, read-out: MIC; for MBC: read-out: MBC
Description: as §3
as §2, with “h.” for “h. The MIC of the compounds was recorded as the lowest concentration at which no visible growth was observed.”

[3] = test system: clinical S. aureus isolate LMY46; type: cell-based, Staphylococcus aureus; settings: Staphylococcus aureus, LMY46; for MIC: 18 h, read-out: MIC; for MBC: read-out: MBC
Description: as §3
as §2, with “h.” for “h. The MIC of the compounds was recorded as the lowest concentration at which no visible growth was observed.”

[4] = test system: clinical S. aureus isolate LMY47; type: cell-based, Staphylococcus aureus; settings: Staphylococcus aureus, LMY47; for MIC: 18 h, read-out: MIC; for MBC: read-out: MBC
Description: as §3
as §2, with “h.” for “h. The MIC of the compounds was recorded as the lowest concentration at which no visible growth was observed.”

[5] = test system: clinical S. aureus isolate LMY48; type: cell-based, Staphylococcus aureus; settings: Staphylococcus aureus, LMY48; for MIC: 18 h, read-out: MIC; for MBC: read-out: MBC
Description: as §3
as §2, with “h.” for “h. The MIC of the compounds was recorded as the lowest concentration at which no visible growth was observed.”

MIC (E. faecium ATCC 35667) | MIC (S. aureus ATCC 29213) | MIC [1] | MIC (A. baumannii ATCC 19606) | MIC (P. aeruginosa ATCC 27853) | MIC (E. coli ATCC 25922) | MIC (MRSA-1) | MIC (MRSA-2) | MIC [2] | MIC [3] | MIC [4] | SMILES | MBC (E. faecium ATCC 35667) | MBC (S. aureus ATCC 29213) | MBC (A. baumannii ATCC 19606) | MBC (E. coli ATCC 25922) | MBC (MRSA-1) | MBC (MRSA-2) | MBC [2] | MBC [3] | MBC [4] | other results
2 µg/mL (≈ 6.05 µM) | 2 µg/mL (≈ 6.05 µM) | > 32 µg/mL | 8 µg/mL (≈ 24.2 µM) | 32 µg/mL (≈ 96.8 µM) | 4 µg/mL (≈ 12.1 µM) | 1 µg/mL (≈ 3.03 µM) | 1 µg/mL (≈ 3.03 µM) | 1 µg/mL (≈ 3.03 µM) | 1 µg/mL (≈ 3.03 µM) | 2 µg/mL (≈ 6.05 µM) | [H]/N=C(\N)NN=C1CCCc2cc(OCCCCCCCC)ccc21 [Compound 2E, (E)-2-(6-(octyloxy)-3,4-dihydronaphthalen-1(2H)-ylidene)hydrazine-1-carboximidamide] | 4 µg/mL (≈ 12.1 µM) | 2 µg/mL (≈ 6.05 µM) | 32 µg/mL (≈ 96.8 µM) | 16 µg/mL (≈ 48.4 µM) | 8 µg/mL (≈ 24.2 µM) | 2 µg/mL (≈ 6.05 µM) | 4 µg/mL (≈ 12.1 µM) | 4 µg/mL (≈ 12.1 µM) | 4 µg/mL (≈ 12.1 µM) | MBC (P. aeruginosa ATCC 27853): > 32 µg/mL; MIC [5]: 1 µg/mL (≈ 3.03 µM); MBC [5]: 2 µg/mL (≈ 6.05 µM)
2 µg/mL (≈ 5.54 µM) | 2 µg/mL (≈ 5.54 µM) | > 32 µg/mL | 16 µg/mL (≈ 44.3 µM) | > 32 µg/mL | 8 µg/mL (≈ 22.2 µM) | 1 µg/mL (≈ 2.77 µM) | 2 µg/mL (≈ 5.54 µM) | 1 µg/mL (≈ 2.77 µM) | 1 µg/mL (≈ 2.77 µM) | 1 µg/mL (≈ 2.77 µM) | [H]/N=C(\N)NN=C1CCCc2cc(OCc3ccc(F)cc3Cl)ccc21 [Compound 1T, (E)-2-(6-((2-chloro-4-fluorobenzyl)oxy)-3,4-dihydronaphthalen-1(2H)-ylidene)hydrazine-1-carboximidamide] | 16 µg/mL (≈ 44.3 µM) | 32 µg/mL (≈ 88.7 µM) | 32 µg/mL (≈ 88.7 µM) | > 32 µg/mL | 8 µg/mL (≈ 22.2 µM) | 8 µg/mL (≈ 22.2 µM) | 4 µg/mL (≈ 11.1 µM) | 4 µg/mL (≈ 11.1 µM) | 4 µg/mL (≈ 11.1 µM) | MIC [5]: 4 µg/mL (≈ 11.1 µM); MBC [5]: 4 µg/mL (≈ 11.1 µM)
4 µg/mL (≈ 11.6 µM) | 2 µg/mL (≈ 5.81 µM) | 16 µg/mL (≈ 46.5 µM) | 8 µg/mL (≈ 23.2 µM) | 32 µg/mL (≈ 92.9 µM) | 8 µg/mL (≈ 23.2 µM) | 2 µg/mL (≈ 5.81 µM) | 2 µg/mL (≈ 5.81 µM) | 2 µg/mL (≈ 5.81 µM) | 2 µg/mL (≈ 5.81 µM) | 2 µg/mL (≈ 5.81 µM) | [H]/N=C(\N)NN=C1CCCc2cc(OCc3cc(F)cc(F)c3)ccc21 [Compound 1G, (E)-2-(6-((3,5-difluorobenzyl)oxy)-3,4-dihydronaphthalen-1(2H)-ylidene)hydrazine-1-carboximidamide] | 8 µg/mL (≈ 23.2 µM) | 8 µg/mL (≈ 23.2 µM) | 8 µg/mL (≈ 23.2 µM) | 16 µg/mL (≈ 46.5 µM) | 16 µg/mL (≈ 46.5 µM) | 16 µg/mL (≈ 46.5 µM) | 4 µg/mL (≈ 11.6 µM) | 8 µg/mL (≈ 23.2 µM) | 8 µg/mL (≈ 23.2 µM) | MBC [1]: 16 µg/mL (≈ 46.5 µM); MIC [5]: 2 µg/mL (≈ 5.81 µM); MBC [5]: 2 µg/mL (≈ 5.81 µM)
4 µg/mL (≈ 13.9 µM) | 1 µg/mL (≈ 3.47 µM) | 8 µg/mL (≈ 27.7 µM) | 8 µg/mL (≈ 27.7 µM) | 16 µg/mL (≈ 55.5 µM) | 4 µg/mL (≈ 13.9 µM) | 32 µg/mL (≈ 111 µM) | 4 µg/mL (≈ 13.9 µM) | 8 µg/mL (≈ 27.7 µM) | 8 µg/mL (≈ 27.7 µM) | 4 µg/mL (≈ 13.9 µM) | [H]/N=C(\N)NN=C1CCCc2cc(OCCCCC)ccc21 [Compound 2B, (E)-2-(6-(pentyloxy)-3,4-dihydronaphthalen-1(2H)-ylidene)hydrazine-1-carboximidamide] | 16 µg/mL (≈ 55.5 µM) | 8 µg/mL (≈ 27.7 µM) | 8 µg/mL (≈ 27.7 µM) | 8 µg/mL (≈ 27.7 µM) | 32 µg/mL (≈ 111 µM) | 4 µg/mL (≈ 13.9 µM) | 16 µg/mL (≈ 55.5 µM) | 16 µg/mL (≈ 55.5 µM) | 8 µg/mL (≈ 27.7 µM) | MBC [1]: 8 µg/mL (≈ 27.7 µM); MBC (P. aeruginosa ATCC 27853): 32 µg/mL (≈ 111 µM); MIC [5]: 2 µg/mL (≈ 6.93 µM); MBC [5]: 2 µg/mL (≈ 6.93 µM)
